How the values were obtained:
Assay type in all cases: in vivo
[1] = system: barnyardgrass (Echinochloa crus-galli); assay: Test A preemergence soil spray, visual injury rating 0-100; settings: 10 days, 0 = no effect, 100 = complete control
Procedure, shortened: (§1)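 Seeds sown in loam-sand blend got a preemergence directed soil spray, or emerged plants (2-10 cm, one- to two-leaf) got a postemergence spray, of compound in non-phytotoxic solvent with surfactant. After 10 days in greenhouse, injury rated visually versus untreated controls on a 0 (no effect) to 100 (complete control) scale.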

[2] = system: blackgrass (Alopecurus myosuroides); assay: as above; settings: 10 days, 0 = no effect, 100 = complete control
Procedure, shortened: as §1

corn (Zea mays) [3] = assay: as above; settings: 10 days, 0 = no effect, 100 = complete control
Procedure, shortened: as §1

[4] = system: green foxtail (Setaria viridis); assay: as above; settings: 10 days, 0 = no effect, 100 = complete control
Procedure, shortened: as §1

kochia (Bassia scoparia) [5] = assay: as above; settings: 10 days, 0 = no effect, 100 = complete control
Procedure, shortened: as §1

[6] = system: oat, wild (wild oat, Avena fatua); assay: as above; settings: 10 days, 0 = no effect, 100 = complete control
Procedure, shortened: as §1

[7] = system: palmer (palmer amaranth, palmer pigweed, Amaranthus palmeri); assay: as above; settings: 10 days, 0 = no effect, 100 = complete control
Procedure, shortened: as §1

[8] = system: ragweed (common ragweed, Ambrosia artemisiifolia); assay: as above; settings: 10 days, 0 = no effect, 100 = complete control
Procedure, shortened: as §1

[9] = system: ryegrass, Italian (italian ryegrass, Lolium multiflorum); assay: as above; settings: 10 days, 0 = no effect, 100 = complete control
Procedure, shortened: as §1

soybean (Glycine max) [10] = assay: as above; settings: 10 days, 0 = no effect, 100 = complete control
Procedure, shortened: as §1

[11] = system: wheat (Triticum aestivum); assay: as above; settings: 10 days, 0 = no effect, 100 = complete control
Procedure, shortened: as §1

[12] = system: barnyardgrass (Echinochloa crus-galli); assay: Test A postemergence application, visual injury rating 0-100; settings: 10 days
Procedure, shortened: as §1

[13] = system: blackgrass (Alopecurus myosuroides); assay: as above; settings: 10 days
Procedure, shortened: as §1

corn (Zea mays) [14] = assay: as above; settings: 10 days
Procedure, shortened: as §1

[15] = system: galium (catchweed bedstraw, Galium aparine); assay: as above; settings: 10 days
Procedure, shortened: as §1

[16] = system: green foxtail (Setaria viridis); assay: as above; settings: 10 days
Procedure, shortened: as §1

[17] = system: horseweed (Erigeron canadensis); assay: as above; settings: 10 days
Procedure, shortened: as §1

kochia (Bassia scoparia) [18] = assay: as above; settings: 10 days
Procedure, shortened: as §1

[19] = system: oat, wild (wild oat, Avena fatua); assay: as above; settings: 10 days
Procedure, shortened: as §1

[20] = system: palmer (palmer amaranth, palmer pigweed, Amaranthus palmeri); assay: as above; settings: 10 days
Procedure, shortened: as §1

[21] = system: ragweed (common ragweed, Ambrosia artemisiifolia); assay: as above; settings: 10 days
Procedure, shortened: as §1

[22] = system: ryegrass, Italian (italian ryegrass, Lolium multiflorum); assay: as above; settings: 10 days
Procedure, shortened: as §1

soybean (Glycine max) [23] = assay: as above; settings: 10 days
Procedure, shortened: as §1

[24] = system: wheat (Triticum aestivum); assay: as above; settings: 10 days
Procedure, shortened: as §1

[25] = system: barnyardgrass (Echinochloa crusgalli); assay: Test B flooded paddy test, visual plant response rating 0-100; settings: 250 g ai/ha, Flood, applied to paddy water, evaluated after 13 days
Procedure, shortened: (§2)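 Paddy-water application: test compounds went directly into water flooded 3 cm above the soil surface, with plants at 2 leaves. After a 13-day greenhouse period, responses were judged by eye relative to controls; a dash marks an untested entry.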

[26] = system: ducksalad (Heteranthera limosa); assay: as above; settings: 250 g ai/ha, Flood, applied to paddy water, evaluated after 13 days
Procedure, shortened: as §2

rice (Oryza sativa) = assay: as above; settings: 250 g ai/ha, Flood, applied to paddy water, evaluated after 13 days
Procedure, shortened: as §2

[27] = system: sedge, umbrella (small-flower umbrella sedge, Cyperus difformis); assay: as above; settings: 250 g ai/ha, Flood, applied to paddy water, evaluated after 13 days
Procedure, shortened: as §2

[28] = 31 g ai/ha, postemergence, 0 = no effect, 100 = complete control
[29] = Postemergence, 125 g ai/ha, 0 is no effect, 100 is complete control

## CSCCOC(=O)C1=CCC(NC(=O)C2(C)CN(c3cc(F)cc(F)c3)C(=O)O2)C1 (stereo not shown) [Compound 23]
[1]; 31 g ai/ha
  Barnyardgrass plant response rating (0-100): 60
[1]; 125 g ai/ha
  Barnyardgrass plant response rating (0 to 100 scale): 100
[2]; 31 g ai/ha
  Blackgrass plant response rating (0-100): 80
[2]; 125 g ai/ha
  Blackgrass plant response rating (0 to 100 scale): 90
Corn (Zea mays) [3]; 31 g ai/ha
  Corn plant response rating (0-100): 30
Corn (Zea mays) [3]; 125 g ai/ha
  Corn plant response rating (0 to 100 scale): 80
[4]; 31 g ai/ha
  Foxtail, Green plant response rating (0-100): 70
[4]; 125 g ai/ha
  Foxtail, Green plant response rating (0 to 100 scale): 100
Kochia (Bassia scoparia) [5]; 31 g ai/ha
  Kochia plant response rating (0-100): 0
Kochia (Bassia scoparia) [5]; 125 g ai/ha
  Kochia plant response rating (0 to 100 scale): 90
[6]; 31 g ai/ha
  Oat, Wild plant response rating (0-100): 20
[6]; 125 g ai/ha
  Oat, Wild plant response rating (0 to 100 scale): 60
[7]; 31 g ai/ha
  Amaranth, Palmer plant response rating (0-100): 30
[7]; 125 g ai/ha
  Amaranth, Palmer plant response rating (0 to 100 scale): 90
[8]; 31 g ai/ha
  Ragweed plant response rating (0-100): 0
[8]; 125 g ai/ha
  Ragweed plant response rating (0 to 100 scale): 70
[9]; 31 g ai/ha
  Ryegrass, Italian plant response rating (0-100): 80
[9]; 125 g ai/ha
  Ryegrass, Italian plant response rating (0 to 100 scale): 90
Soybean (Glycine max) [10]; 31 g ai/ha
  Soybean plant response rating (0-100): 10
Soybean (Glycine max) [10]; 125 g ai/ha
  Soybean plant response rating (0 to 100 scale): 70
[11]; 31 g ai/ha
  Wheat plant response rating (0-100): 80
[11]; 125 g ai/ha
  Wheat plant response rating (0 to 100 scale): 90
[12]; [28]
  Barnyardgrass plant response rating (0-100): 100
[12]; [29]
  Barnyardgrass plant response rating (0 to 100 scale): 100
[13]; [28]
  Blackgrass plant response rating (0-100): 90
[13]; [29]
  Blackgrass plant response rating (0 to 100 scale): 100
Corn (Zea mays) [14]; [28]
  Corn plant response rating (0-100): 100
Corn (Zea mays) [14]; [29]
  Corn plant response rating (0 to 100 scale): 100
[15]; [28]
  Galium plant response rating (0-100): 80
[15]; [29]
  Galium plant response rating (0 to 100 scale): 90
[16]; [28]
  Foxtail, Green plant response rating (0-100): 90
[16]; [29]
  Foxtail, Green plant response rating (0 to 100 scale): 90
[17]; [28]
  Horseweed plant response rating (0-100): 80
[17]; [29]
  Horseweed plant response rating (0 to 100 scale): 90
Kochia (Bassia scoparia) [18]; [28]
  Kochia plant response rating (0-100): 80
Kochia (Bassia scoparia) [18]; [29]
  Kochia plant response rating (0 to 100 scale): 90
[19]; [28]
  Oat, Wild plant response rating (0-100): 90
[19]; [29]
  Oat, Wild plant response rating (0 to 100 scale): 100
[20]; [28]
  Amaranth, Palmer plant response rating (0-100): 80
[20]; [29]
  Amaranth, Palmer / Pigweed, Palmer plant response rating (0 to 100 scale): 90
[21]; [28]
  Ragweed plant response rating (0-100): 60
[21]; [29]
  Ragweed plant response rating (0 to 100 scale): 70
[22]; [28]
  Ryegrass, Italian plant response rating (0-100): 80
[22]; [29]
  Ryegrass, Italian plant response rating (0 to 100 scale): 70
Soybean (Glycine max) [23]; [28]
  Soybean plant response rating (0-100): 80
Soybean (Glycine max) [23]; [29]
  Soybean plant response rating (0 to 100 scale): 90
[24]; [28]
  Wheat plant response rating (0-100): 90
[24]; [29]
  Wheat plant response rating (0 to 100 scale): 90
[25]
  Plant response rating, Barnyardgrass (0 to 100 scale, 0 is no effect and 100 is complete control): 95
[26]
  Plant response rating, Ducksalad (0 to 100 scale, 0 is no effect and 100 is complete control): 70
Rice (Oryza sativa)
  Plant response rating, Rice (0 to 100 scale, 0 is no effect and 100 is complete control): 85
[27]
  Plant response rating, Sedge, Umbrella (0 to 100 scale, 0 is no effect and 100 is complete control): 86

From patent publication US20260285850A1, “SUBSTITUTED OXAZOLIDINONES AND IMIDAZOLINONES AS HERBICIDES” (FMC CORPORATION, priority 2023, published 2026)
